Laboratory results from PubChem BioAssay AID1419 (Emory University Molecular Libraries Screening Center, 2008).
Calls of active or inactive are those of the source. The rule behind the calls is not given here.

Assay: EBV protein-peptide binding inhibitors, dose response, biochemical, fluorescence polarization (AID 1419)
Settings: cell-free protein-peptide binding, 2 h; for fold change: measured here: P channel fold over control, at 54 µM

SMILES | IC50 | fold change
CCCCCCOC(=O)C(C#N)c1nc2ccccc2nc1N1CCOCC1 (configuration not stated) | 14.6 µM | 8.17
CCn1c(CSc2nccn2C)nc2cc(C(=O)O)ccc21 | 13 µM | 2.34
CCOc1ccc(C2CC(c3c(O)c4ccccc4oc3=O)=NN2c2ccccc2)cc1OC (configuration not stated) | 2.06 µM | 49.3
CCOCCCNc1nc2c(C)cccn2c(=O)c1/C=C1\SC(=S)N(C(C)CC)C1=O (configuration not stated) | 13.2 µM | 6.84
O=C(NC(NC(=S)Nc1ccc(Cl)cc1Cl)C(Cl)(Cl)Cl)c1cccc([N+](=O)[O-])c1 (configuration not stated) | > 54 µM (inactive) | 0.953
Cc1ccc2c3c(cccc13)-c1ccccc1C2=O | 2.37 µM | 2.72
CCC(C)NC(=O)c1ccc(CSCc2cccc(F)c2)o1 (configuration not stated) | > 54 µM (inactive) | 1.08
CC(C)(C)NC(=O)c1sccc1C(=O)O | > 54 µM (inactive) | 1.06
Cn1nc([N+](=O)[O-])c(C(C#N)c2nc3ccccc3n2C)c(Cl)c1=O (configuration not stated) | 2.39 µM | 2.35
CN(C)c1cccc(C(=O)OCc2cc(=O)oc3cc(O)ccc23)c1 | > 54 µM (inactive) | 1.01
CCCCNc1c2c3c(cccc3n(C)c1=O)C(=O)c1ccccc1-2 | < 0.42 µM | 150
CCOc1ccc(-n2c(O)c(C=Nc3ccc(N(CC)CC)cc3)c(=O)[nH]c2=O)cc1 | 7.18 µM | 9.37
N#C/C(=C\C=C\c1ccccc1)c1nc(-c2ccc3c(c2)OCO3)cs1 | 1.49 µM | 14.2
CN1CC=C2C(C#N)=C(N)C(C#N)(C#N)C(c3cccc(Cl)c3Cl)C2C1 (configuration not stated) | 1.44 µM | 7.33
Fc1ccccc1/C=N/Nc1ncnc2nc[nH]c12 | > 54 µM (inactive) | 1.17
Cc1nc2ccccc2n2c(O)c(CC(=O)O)cc12 | > 54 µM (inactive) | 7.32
COc1ccc(NC(=O)C2Cc3ccccc3CN2C(=O)c2ccccc2)cn1 (configuration not stated) | 8.48 µM | 3.29
COC(=O)c1ccccc1NC(=O)Nc1ncccc1C | > 54 µM (inactive) | 0.937
Cc1ccc(S(=O)(=O)Nc2ccc(N3CCN(C)CC3)nc2)cc1 | 3.59 µM | 2.82
COc1ccc(-n2c(C)cc(/C=C3\SC(=S)N(Cc4ccco4)C3=O)c2C)cc1 | 7.24 µM | 5.18
CCn1c2ccccc2c2cc(NC(=O)c3ccc(=O)oc3)ccc21 | > 54 µM (inactive) | 1.77

SMILES | IC50 | fold change
CN1C[C@H](CO)C=C2c3cccc4[nH]cc(c34)C[C@H]21 | 12.4 µM | 1.62
O=C(CSc1n[nH]c(=O)[nH]c1=O)Nc1ccc2c(c1)C(=O)c1ccccc1C2=O | 9.26 µM | 1.21
CSc1c(C#N)c(N)nc2sc(C(=O)c3ccc(Cl)c(Cl)c3)c(N)c12 | 1.74 µM | 9.22
COc1ccccc1N1CCN(CC(O)COc2cccc3ccccc23)CC1 (configuration not stated) | > 54 µM (inactive) | 0.917
COc1ccc(-n2cccc2/C=C2\C(=N)N3N=C(c4ccco4)SC3=NC2=O)cc1 | 2.85 µM | 1.17
Cc1ccc2oc(=O)c(/C=C(\O)c3ccccc3)nc2c1 | 35.4 µM (inactive) | 2.39
CC(C)c1nnc(N2C(=O)C(O)=C(C(=O)c3cccs3)C2c2ccccc2)s1 (configuration not stated) | < 0.42 µM | 4.97
Cn1c(SCC(=O)Nc2ccc3nc(SCC(=O)N4CCCC4)sc3c2)nnc1-c1ccc(N)cc1 | 36.4 µM (inactive) | 1.12
CN1C(=O)C(=Cc2ccc(N3CCCCCC3)cc2)C(=O)N(C)C1=O | 6.16 µM | 11.1
CN(c1ncc(C(F)(F)F)cc1Cl)N1C(=O)c2cccc(N)c2C1=O | 3.83 µM | 1.88
CCOc1ccc2nc(N3C(=O)/C(=C/c4ccc(Cl)cc4)NC3=S)sc2c1 | > 54 µM (inactive) | 1.35
O=C(NCCCO)Nc1ccc2nc(-c3ccco3)c(-c3ccco3)nc2c1 | 4.06 µM | 5.99
O=C(Nc1ccc2nc3ccccc3nc2c1)c1ccccc1 | 15.5 µM | 1.85
COc1cccc(CN2C(=O)c3cccc(N)c3C2=O)c1 | 4.47 µM | 2.76
COc1ccc(-c2onc3ccc(Br)cc23)cc1 | 0.86 µM | 7.24
C=CCN1C(=O)/C(=C/c2ccc(N(C)C)cc2)S/C1=N\c1nnc(CC)s1 | 9.51 µM | 10.2
Oc1ccccc1C=NC1=NN(c2cccc(C(F)(F)F)c2)CC1 | 3.11 µM | 19.9
CNC(=S)NN(c1ccccc1)c1ccccc1 | > 54 µM (inactive) | 1.01
CC1CCCN(c2nc3ccccc3nc2C(C#N)S(=O)(=O)c2ccccc2)C1 (configuration not stated) | > 54 µM (inactive) | 1.37
O=C(O)c1ccccc1/C=N/NC(=O)c1cc(-c2ccco2)nc2ccccc12 | 30.4 µM (inactive) | 1.03
